No end group written: not given here.
Tests used:
[1] = system: memory function via hippocampal mechanisms; details: ref [50], [51]; cited from earlier work
[2] = system: alcohol-related responses; details: preclinical and clinical studies, ref [6–18]; cited from earlier work
Source text: Alcohol use disorder (AUD) is a major public health problem with high morbidity and mortality. Its development is complex and the dopaminergic neurons from the ventral tegmental area (VTA) to the nucleus accumbens (NAc) have gained extra interest as they mediate alcohol-induced reward (for review see [2, 3]). Various biological systems participate in the ability of alcohol to interact with these dopamine neurons, and gut-brain peptides have been implied as important modulators (for review see [4]). One of these peptides is ghrelin (i.e., acyl-ghrelin, the acylated form of ghrelin [ ...

[3] = system: high alcohol-consuming mice; details: central infusion, ref [47]; cited from earlier work
CB1 receptor = experiment: Aquoscreen receptor activity assay, CB1; format: cell-based, human; details: 60 µM JWH-018, also at 7.5 µM; luminescence
dopamine in NAc shell = experiment: In vivo microdialysis, dopamine release in NAc shell; parameters: species or system Wistar rats; details: male rats (methods), alcohol 2 g/kg IP, n = 8 per group
Source text: Male and female Rcc Han Wistar rats (8–12 weeks old at arrival; Envigo, Horst, Netherlands) were used for the alcohol drinking and locomotor activity experiments as they drink alcohol to intoxicating levels. For in vivo microdialysis studies male Wistar rats (Charles River, Calco, Italy) were used as they display robust dopamine levels in NAc shell after alcohol injection. […] All rodents were allowed to habituate to the animal facility at least one week before they entered an experiment. […] The sample sizes of each experiment were based on previous experience in which statistical significance has been detected. The person who conducted the experiments, and analyzed the collected data was aware of the treatment allocation. Only preset exclusion criteria were used when analyzing the data obtained in attempts to exclude confounding factors in analyzing data. In the alcohol drinking experiments leaking bottles and low alcohol consumption (<3.0 g/kg for males; <3.5 g/kg for females) were preset exclusion criteria. The preset exclusion criterion in the ex vivo HPLC-EC, ELISA, and recombinant cell line experiments was contamination of the sample. Misplaced probes, technical difficulties, and damages to the surgery area were preset exclusion criteria for the in vivo microdialysis experiment. Intra-cage male aggression was the preset exclusion criterion for the locomotor activity and CPP experiments. To minimize tentative confounding factors, the order of treatments was stratified, with treatments being mixed for each animal cage and for each apparatus used as well as balancing the alcohol intake between future treatment groups. […]
The data from drinking experiments were analyzed by unpaired t-test or repeated two-way ANOVA. A two-tailed unpaired t-test analyzed the ELISA, ex vivo HPLC-EC, and cFOS data. […] A one-way ANOVA with Bonferroni post hoc tests and unpaired t-test analyzed the locomotor activity and CPP data, respectively. The in vivo microdialysis experiments were evaluated by a repeated two-way ANOVA followed by the Bonferroni post hoc test.

male mice = experiment: Locomotor activity test, alcohol-induced stimulation and DAG per se, mice; format: in vivo, NMRI mice
Source text: Male and female Rcc Han Wistar rats (8–12 weeks old at arrival; Envigo, Horst, Netherlands) were used for the alcohol drinking and locomotor activity experiments as they drink alcohol to intoxicating levels. For in vivo microdialysis studies male Wistar rats (Charles River, Calco, Italy) were used as they display robust dopamine levels in NAc shell after alcohol injection. […] All rodents were allowed to habituate to the animal facility at least one week before they entered an experiment. […] The sample sizes of each experiment were based on previous experience in which statistical significance has been detected. The person who conducted the experiments, and analyzed the collected data was aware of the treatment allocation. Only preset exclusion criteria were used when analyzing the data obtained in attempts to exclude confounding factors in analyzing data. In the alcohol drinking experiments leaking bottles and low alcohol consumption (<3.0 g/kg for males; <3.5 g/kg for females) were preset exclusion criteria. The preset exclusion criterion in the ex vivo HPLC-EC, ELISA, and recombinant cell line experiments was contamination of the sample. Misplaced probes, technical difficulties, and damages to the surgery area were preset exclusion criteria for the in vivo microdialysis experiment. Intra-cage male aggression was the preset exclusion criterion for the locomotor activity and CPP experiments. To minimize tentative confounding factors, the order of treatments was stratified, with treatments being mixed for each animal cage and for each apparatus used as well as balancing the alcohol intake between future treatment groups.
Alcohol was in the behavioral and neurochemical tests injected (intraperitoneally, IP) 5 min before the test.
Locomotor activity tests were conducted in ventilated and dim-lit (4 lux) open field arenas (420 × 420 × 200 mm; Med Associates Inc; Georgia, Vermont, USA). Infra-red beams detected distance traveled, number of jumps, vertical counts, average velocity, stereotypic counts, number of inner zone entries, and time spent in the inner/outer zones of each animal.
In the first test, after 60 min of habituation, male (n = 24) or female (n = 24) rats were injected with vehicle or DAG (0.5, 1.0, or 2.0 mg/kg). 15 min later the activity was monitored for another 60 min. In the second locomotor activity experiment, male mice (n = 32) were allowed to habituate for 60 min. After that, they were injected with vehicle or DAG (0.25, 0.5, or 1.0 mg/kg). After 15 min the activity was monitored for another 60 min.
Therefore, male mice were (n = 32) injected with DAG (1.0 mg/kg) or vehicle 15 min before alcohol or vehicle. The activity registration started 5 min later and was recorded for an additional 60 min. Identical locomotor activity experiments were conducted in new male mice (n = 32), where a lower dose of DAG (0.5 mg/kg) was combined with alcohol.
The data from drinking experiments were analyzed by unpaired t-test or repeated two-way ANOVA. A two-tailed unpaired t-test analyzed the ELISA, ex vivo HPLC-EC, and cFOS data. In addition, the Pearson test correlated the serum levels and the mean values of alcohol intake in rats. A one-way ANOVA with Bonferroni post hoc tests and unpaired t-test analyzed the locomotor activity and CPP data, respectively. The in vivo microdialysis experiments were evaluated by a repeated two-way ANOVA followed by the Bonferroni post hoc test.

[4] = system: human transporter of dopamine (DAT); experiment: Transporter inhibition in recombinant cell line (neurotransmitter transporter uptake assay), DAT; format: cell-based; details: cocaine at such concentration (12.5 µM and 6.25 µM); CHO-K1 cells, 3 h, fluorescence
SERT = experiment: Transporter inhibition in recombinant cell line, SERT; format: cell-based, human; details: cocaine at 12.5 µM and 6.25 µM (top concentration 50 µM); 3 h, fluorescence
NET = experiment: Transporter inhibition in recombinant cell line, NET; format: cell-based, human; details: cocaine at 12.5 µM and 6.25 µM (top concentration 50 µM); 3 h, fluorescence

Molecule: ghrelin (GSSFLSPEHQRVQQRKESKKPPAKLQPR; ends and bridges not checked; also: octanoylated, position not given here; UniProt Q9UBU3 24-51, looked up) [orexigenic peptide, the acylated form of ghrelin]
- memory function [1]: enhance memory function via hippocampal mechanisms
- alcohol-related responses [2]: enhances

Molecule: LEAP2: recently discovered inverse GHSR agonist (MTPFWRGVSLRPIGASCRDDSECITRLCRKRRCSLSVAQE; ends and bridges not checked; cysteine pairing not given here; UniProt Q969E1 38-77, looked up)
- alcohol intake [3]: reduces alcohol intake in high alcohol-consuming mice after its central infusion

Molecule: CCCCCn1cc(C(=O)c2cccc3ccccc23)c2ccccc21 [JWH-018]
- effect on target receptor CB1 (CB1 receptor): full target receptor inhibition

Molecule: CCO [alcohol]
- dopamine in NAc shell, alcohol vs vehicle (dopamine in NAc shell): elevated dopamine in NAc shell (80 min P < 0.001, 160 min P = 0.0011, 180 min P = 0.0037, 200 min P < 0.0001)
- locomotor stimulation by alcohol (male mice; alcohol 1.75 g/kg IP (experiment with DAG 0.5 mg/kg)): hyperlocomotion after alcohol (P = 0.0225)
- locomotor stimulation by alcohol (male mice; alcohol 1.75 g/kg IP vs vehicle, n = 8 per group (experiment with DAG 1 mg/kg)): caused a locomotor simulation (P = 0.0136)

Molecule: COC(=O)[C@H]1[C@@H](OC(=O)c2ccccc2)C[C@@H]2CC[C@H]1N2C [cocaine]
- inhibition of DAT, share of full transporter inhibition [4]: 70–80%
- inhibition of SERT (SERT): full NET and SERT inhibition at 12.5 µM and 6.25 µM
- inhibition of NET (NET): full NET and SERT inhibition at 12.5 µM and 6.25 µM

Source: article PMC11224403, “Des-acyl ghrelin reduces alcohol intake and alcohol-induced reward in rodents” (Translational Psychiatry, 2024)
